Several values for one entry are separate records, joined by “and”; a condition that tells them apart may be missing. Equal values may be shown once. Read-outs that look alike come from different tables or passages of the source.
How the values were obtained:
[1] = target: T1, Halo-EGFP-NanoLuc-FKBP^F36V (H-E-N-F) fusion protein (UniProt P0A3G2+P62942+Q9GV45, A155T/A167V/A172T/A224E/A31E/A60N/A81I/C128F/C176G/D78G/E160K/E257K/F37V/F95D/H272N/I117V/K175M/K195N/K70R/L47V/L54V/L88M/L99Q/M102K/N193R/N227D/P142E/P291S/Q151K/Q38R/Q45L/S2A/S58T/T264A/V71I/Y165I/Y273L/Y87F); assay type: cell-based; settings: for Blank corrected (470-80) luminescence / Blank corrected Raw Data (470-80): +dox; for Blank corrected (470-80) luminescence: single well replicates; for Blank corrected (470-80): sheet S3B; for Blank corrected (470-80) / Blank corrected Raw Data (470-80): replicate wells; for Blank corrected Raw Data (470-80): PROTAC 500nM
Target sequence in this assay (Q9GV45 other isoform, or with tags, fused parts or gaps with the stated changes): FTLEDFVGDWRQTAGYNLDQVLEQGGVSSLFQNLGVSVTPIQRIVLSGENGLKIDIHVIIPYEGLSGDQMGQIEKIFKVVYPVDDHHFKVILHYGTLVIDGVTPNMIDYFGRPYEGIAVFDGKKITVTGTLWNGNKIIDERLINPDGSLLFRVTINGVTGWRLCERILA
Target sequence in this assay (P0A3G2 other isoform, or with tags, fused parts or gaps with the stated changes): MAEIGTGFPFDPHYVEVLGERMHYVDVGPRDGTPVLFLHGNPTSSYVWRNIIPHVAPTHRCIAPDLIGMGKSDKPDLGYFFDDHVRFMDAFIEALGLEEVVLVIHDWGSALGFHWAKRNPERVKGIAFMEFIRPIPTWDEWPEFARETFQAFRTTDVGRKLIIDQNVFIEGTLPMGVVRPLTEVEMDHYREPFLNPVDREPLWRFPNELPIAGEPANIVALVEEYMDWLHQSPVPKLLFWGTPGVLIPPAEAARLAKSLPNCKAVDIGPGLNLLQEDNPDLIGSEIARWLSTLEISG
Target sequence in this assay (P62942 whole entry F37V, the tested form may be a part): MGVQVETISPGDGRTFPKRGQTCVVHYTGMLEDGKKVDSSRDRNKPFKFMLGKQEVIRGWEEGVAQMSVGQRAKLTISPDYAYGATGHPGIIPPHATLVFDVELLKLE

[2] = target: T1, Halo-EGFP-NanoLuc-FKBP^F36V (H-E-N-F) fusion protein; assay type: cell-based; design: expressed in transfected cells; host or cells: immortalized mouse dermal fibroblasts (iMDFs), ubiquitin promoter, constitutive; settings: 500 nM
Target sequence in this assay (P0A3G2 other isoform, or with tags, fused parts or gaps with the stated changes): as the sequence (P0A3G2 other isoform, or with tags, fused parts or gaps with the stated changes) above
Target sequence in this assay (Q9GV45 other isoform, or with tags, fused parts or gaps with the stated changes): as the sequence (Q9GV45 other isoform, or with tags, fused parts or gaps with the stated changes) above
Target sequence in this assay (P62942 whole entry F37V, the tested form may be a part): as the sequence (P62942 whole entry F37V, the tested form may be a part) above

Fibrillarin-FKBP^F36V = target: T2, Fibrillarin-FKBP^F36V (Homo sapiens, UniProt P62942, F37V); assay type: cell-based; settings: 500 nM, 10 h
T2 construct: endogenous in cells; host or cells: 293T, CRISPR/PITCh knock-in at the FBL locus

wild-type HT29 cells = test: Necroptosis assay (PI exclusion, flow cytometry), wild-type HT29 cells, TNF+SM+IDN; assay type: cell-based, human; settings: sheet S5H
Method: To simulate necroptosis, cells were seeded into 96-well plates ±40 ng/mL doxycycline, to induce construct expression, and treated with 100 ng/mL FLAG-TNF (recombinant human, in-house), 500 nM compound A Smac mimetic (kindly gifted by TetraLogics Pharmaceuticals) and 5 μM IDN-6556 (Cayman) or 10 uM Z-VAD-fmk (Selleckchem) overnight (16–24 h). Degrader compounds or a DMSO vehicle control were added for 5 h, as stated in the Fig. legends. Cells were detached using Trypsin-EDTA (Merck) and resuspended in cell supernatants containing 10 μg/mL propidium iodide (PI). PI exclusion analysis was performed using an LSR II flow cytometer (Becton Dickinson, NJ) with 10,000 single-cell events per sample. Flow cytometry data were analysed using WEASEL version 2.7 software (Frank Battye).
Supplementary Figure 5. […]
NC4. Data are representative of N = 3 independent experiments. f-h. HT29 cells were stimulated with DMSO (control) or 500 nM of degrader for 5 hours before the addition of TNF (100 ng/mL) + Smac mimetic (compound A; 500 nM-1 µM) + caspase inhibitor; Emricasan (IDN) (5 µM), for 24 hours. Cell death was assessed by flow cytometric analysis of PI exclusion. N = 3 replicates (symbols) is shown, EB; mean ± SD. Data are representative of N = 3 independent experiments. i. Representative flow cytometry gating strategy. Source data are provided as a Source Data file.

murine MLKL-FKBP^F36V = target: T3, murine MLKL-FKBP^F36V (Homo sapiens, UniProt P62942, F37V); assay type: cell-based; settings: 31.2-500 nM, 5 h
T3 construct: expressed in transfected cells; host or cells: Mlkl-/- mouse dermal fibroblasts, doxycycline-inducible
Method: All timepoint experiments were performed as reverse timepoints in order to harvest all cells at the same time. At the indicated time points cells were lysed in NuPAGE LDS lysis buffer (Invitrogen) diluted to 1× in DISC lysis buffer (20 mM Tris-HCl pH7.5, 150 mM NaCl, 2 mM EDTA pH 8.0, 1% Triton X-100, 10% glycerol, H20)) supplemented with β-Mercaptoethanol (2%), protease and phosphatase inhibitors. Lysates were run through polypropylene columns (Pierce) to shred DNA. […] Membranes were blocked in 5% skim milk (Devondale) in TBS-T (TBS, 0.1% Tween-20) for 1 h prior to immunoblotting with primary antibodies overnight at 4 °C. Unless stated otherwise, all primary antibodies were diluted in TBS-T (TBS, 0.1% Tween-20) containing 5% BSA (Sigma A8022) and 0.04% sodium azide: HaloTag (1:1000, Promega; G9211), NanoLuc (1:500, Promega; N7000), β-actin (1:20,000, Sigma; A-1798), MLKL (1:1000, produced in-house; 3H1 clone)[39], FKBP (1:1000, R&D systems; 422513), caspase-8 (1:1000, Proteintech; 13423-1-AP), Histone H3 (1:1000, Abcam; ab10799), Cadherin (1:1000, Cell Signalling Technologies; 4068 T). Membranes were washed 3 × 5–10 min in TBS-T (TBS, 0.1% Tween-20) prior to the addition of the appropriate secondary antibodies conjugated with horseradish peroxidase (Jaxon laboratories). […]

[3] = tested on: MLKL^−/− HT29 cells expressing MLKL-FKBP^F36V; assay type: cell-based; settings: for Live cells (%PI negative) after TNF+911+zVAD: MLKL-/- + MLKL FKBPF36V, independent experiments
Method: Cell death was assessed by flow cytometric analysis of PI exclusion. […] Cell death was assessed by flow cytometric analysis of PI exclusion. […] Cell death was assessed by flow cytometric analysis of PI exclusion. e N = 4, f N = 3 independent experiments (symbols), EB represent mean ± SD. g Western from MLKL^−/−CASP8^−/− HT29 cells stably expressing the doxycycline-inducible C-terminal fusion protein, MLKL-NanoLuc (MLKL-NLuc) and constitutively expressing the C-terminal fusion protein caspase-8-FKBP^F36V. […] Cell death was assessed using an IncuCyte and Cytotox-Red uptake. N = 3 independent experiments, one representative experiment shown, EB represent mean ± SD.

[4] = tested on: MLKL^−/− HT29 cells expressing untagged MLKL; assay type: cell-based; settings: MLKL-/- + MLKL, independent experiments
[5] = cited from earlier work

T3 sequence (P62942 whole entry F37V): as the sequence (P62942 whole entry F37V, the tested form may be a part) above
T2 sequence (P62942 whole entry F37V): as the sequence (P62942 whole entry F37V, the tested form may be a part) above

CC[C@H](C(=O)N1CCCC[C@H]1C(=O)O[C@H](CCc1ccc(OC)c(OC)c1)c1ccccc1OCC(=O)NCCCCCCOc1cccc2c1C(=O)N(C1CCC(=O)NC1=O)C2=O)c1cc(OC)c(OC)c(OC)c1 (stereo partly shown) [FC1]
Blank corrected (470-80) luminescence ([1]; 3.9nM PROTAC): 74602 and 77149 and 76062 and 81411 | Blank corrected (470-80) luminescence ([1]; 7.8nM PROTAC): 59479 and 62985 and 66400 | Blank corrected (470-80) luminescence ([1]; 31.25nM PROTAC): 36339 and 35562 and 38426 | Blank corrected (470-80) luminescence ([1]; 62.5nM PROTAC): 25282 and 26898 and 23798 and 25010 | Blank corrected (470-80) ([1]; 62.5nM): 88170.7 and 89328.7 and 91847.7 and 71716.7 | Blank corrected (470-80) luminescence ([1]; 250nM PROTAC): 11621 and 12159 and 11550 | Blank corrected (470-80) ([1]; 250nM): 43826.7 and 54015.7 and 43806.7 and 52617.7 | Blank corrected (470-80) luminescence ([1]; 500nM PROTAC, 5h): 14990 and 16286 and 14132 | Blank corrected (470-80) luminescence ([1]; 500nM PROTAC, 8h): 14691 and 12990 and 15151 | Blank corrected (470-80) luminescence ([1]; 500nM PROTAC, 24h): 19581 and 16848 and 19949 and 18475 | Blank corrected (470-80) luminescence ([1]; 500nM PROTAC): 10379 and 10950 and 11612 | Blank corrected (470-80) ([1]; 500nM): 41968.7 and 40671.7 and 43532.7 and 41295.7 | Blank corrected (470-80) luminescence ([1]; 1uM PROTAC): 13507 and 14074 and 13991 and 15263 | Blank corrected (470-80) ([1]; 1uM): 51312.7 and 60071.7 and 47699.7 and 53692.7 | Blank corrected Raw Data (470-80) ([1]; DMSO (control) co-treatment): 8854 and 8375 and 8376 and 8057 | Blank corrected Raw Data (470-80) ([1]; co-treatment with MG132 (10uM)): 80455 and 95513 and 84222 and 82486 | time up to which degradation was seen, degrader left in the medium ([2]; 5, 24 or 48 h): up to 48 h | time up to which degradation was maintained, degrader removed at 5 h ([2]; 24 or 48 h after removal): up to 48 h | Dmax (densitometry) (Fibrillarin-FKBP^F36V): ~ 70% | viable cells (PI exclusion) (wild-type HT29 cells; TNF+SM+IDN): 8.5 and 5.7 and 7.1 | viable cells (PI exclusion) (wild-type HT29 cells; Untreated (no death stimulus)): 77.5 and 79.3 and 78.7 | degradation of murine MLKL-FKBP^F36V (murine MLKL-FKBP^F36V): comparable degradation | concentration sustaining cell survival over 24 h [3]: 62.5 nM | Live cells (%PI negative) after TNF+911+zVAD ([3]; 31.25nM): 75.8 and 59.7 and 66 and 51.4 | Live cells (%PI negative) after TNF+911+zVAD ([3]; 62.5nM): 81.5 and 75.5 and 67.7 and 62.5 | Live cells (%PI negative) after TNF+911+zVAD ([3]; 250nM): 83.3 and 81.2 and 68.1 and 65 | Live cells (%PI negative) after TNF+911+zVAD ([3]; 500nM): 83.3 and 81.7 and 67.1 and 65 | Live cells (%PI negative) after TNF+911+zVAD ([3]; 1000nM): 81 and 84.9 and 67.9 and 54.3 | Live cells (%PI negative) after TNF+911+zVAD ([4]; 3.9nM): 6.9 and 6.6 and 8.9 and 5.1 | Live cells (%PI negative) after TNF+911+zVAD ([4]; 7.8nM): 6.1 and 5.8 and 8.5 and 4.8 | Live cells (%PI negative) after TNF+911+zVAD ([4]; 31.25nM): 5.7 and 5.5 and 8.3 and 4.7 | Live cells (%PI negative) after TNF+911+zVAD ([4]; 62.5nM): 6.6 and 6 and 9 and 4.5

CO[C@H]1C[C@@H]2CC[C@@H](C)[C@@](O)(O2)C(=O)C(=O)N2CCCC[C@H]2C(=O)O[C@H]([C@H](C)C[C@@H]2CC[C@@H](OCCOCc3cn(CCOCCOCCNc4cccc5c4C(=O)N(C4CCC(=O)NC4=O)C5=O)nn3)[C@H](OC)C2)CC(=O)[C@H](C)/C=C(/C)[C@@H](O)[C@@H](OC)C(=O)[C@H](C)C[C@H](C)\C=C/C=C\C=C/1C (stereo partly shown) [RC32]
depletion of substrates in animals [5]: efficient depletion of substrates | tolerability in animals [5]: well tolerated

— PMC9019100, “Development of NanoLuc-targeting protein degraders and a universal reporter system to benchmark tag-targeted degradation platforms” (Nature Communications, 2022)
